Reference: ChEMBL document CHEMBL2380212, “Synthesis, single crystal and antitumor activities of benzimidazole-quinazoline hybrids” (Bioorg Med Chem Lett, 2013)

Key:
[1] = test system: PC-3; assay: Cytotoxicity against human PC3 cells at 10 uM after 48 hrs by SRB assay; format: functional; conditions: PC-3, 48 h, read-out: GI
[2] = test system: HT-29; assay: Cytotoxicity against human HT-29 cells at 10 uM after 48 hrs by SRB assay; format: functional; conditions: HT-29, 48 h, read-out: GI
[3] = test system: SNB-19; assay: Cytotoxicity against human SNB19 cells at 10 uM after 48 hrs by SRB assay; format: functional; conditions: SNB-19, 48 h, read-out: GI
[4] = test system: NCI-H322M; assay: Cytotoxicity against human NCI-H322M cells at 10 uM after 48 hrs by SRB assay; format: functional; conditions: read-out: GI
[5] = test system: NCI-H226; assay: Cytotoxicity against human NCI-H226 cells at 10 uM after 48 hrs by SRB assay; format: functional; conditions: NCI-H226, 48 h, read-out: GI
[6] = test system: SR; assay: Cytotoxicity against human SR cells at 10 uM after 48 hrs by SRB assay; format: functional; conditions: read-out: GI
[7] = test system: OVCAR-3; assay: Cytotoxicity against human OVCAR3 cells at 10 uM after 48 hrs by SRB assay; format: functional; conditions: OVCAR-3, 48 h, read-out: GI
[8] = test system: HCT-15; assay: Cytotoxicity against human HCT15 cells at 10 uM after 48 hrs by SRB assay; format: functional; conditions: HCT-15, 48 h, read-out: GI
[9] = test system: HL-60(TB); assay: Cytotoxicity against human HL-60(TB) cells at 10 uM after 48 hrs by SRB assay; format: functional; conditions: HL-60, 48 h, read-out: GI
[10] = test system: COLO 205; assay: Cytotoxicity against human COLO205 cells at 10 uM after 48 hrs by SRB assay; format: functional; conditions: COLO 205, 48 h, read-out: GI
[11] = test system: RXF 393; assay: Cytotoxicity against human RXF393 cells at 10 uM after 48 hrs by SRB assay; format: functional; conditions: RXF 393, 48 h, read-out: GI
[12] = test system: NCI-H23; assay: Cytotoxicity against human NCI-H23 cells at 10 uM after 48 hrs by SRB assay; format: functional; conditions: NCI-H23, 48 h, read-out: GI
[13] = test system: RPMI-8226; assay: Cytotoxicity against human RPMI8226 cells at 10 uM after 48 hrs by SRB assay; format: functional; conditions: RPMI-8226, 48 h, read-out: GI
[14] = test system: NCI-H460; assay: Cytotoxicity against human NCI-H460 cells at 10 uM after 48 hrs by SRB assay; format: functional; conditions: NCI-H460, 48 h, read-out: GI
[15] = test system: MDA-MB-468; assay: Cytotoxicity against human MDA-MB-468 cells at 10 uM after 48 hrs by SRB assay; format: functional; conditions: MDA-MB-468, 48 h, read-out: GI
[16] = test system: UO-31; assay: Cytotoxicity against human UO31 cells at 10 uM after 48 hrs by SRB assay; format: functional; conditions: UO-31, 48 h, read-out: GI
[17] = test system: HOP-92; assay: Cytotoxicity against human HOP92 cells at 10 uM after 48 hrs by SRB assay; format: functional; conditions: HOP-92, 48 h, read-out: GI
[18] = test system: SK-MEL-2; assay: Cytotoxicity against human SK-MEL-2 cells at 10 uM after 48 hrs by SRB assay; format: functional; conditions: SK-MEL-2, 48 h, read-out: GI
[19] = test system: LOX IMVI; assay: Cytotoxicity against human LOXIMVI cells at 10 uM after 48 hrs by SRB assay; format: functional; conditions: read-out: GI
[20] = test system: 786-0; assay: Cytotoxicity against human 786-0 cells at 10 uM after 48 hrs by SRB assay; format: functional; conditions: 786-0, 48 h, read-out: GI
[21] = test system: SN12C; assay: Cytotoxicity against human SN12C cells at 10 uM after 48 hrs by SRB assay; format: functional; conditions: read-out: GI
[22] = test system: UACC-62; assay: Cytotoxicity against human UACC62 cells at 10 uM after 48 hrs by SRB assay; format: functional; conditions: UACC-62, 48 h, read-out: GI
[23] = test system: OVCAR-8; assay: Cytotoxicity against human OVCAR8 cells at 10 uM after 48 hrs by SRB assay; format: functional; conditions: OVCAR-8, 48 h, read-out: GI
[24] = test system: HCT-116; assay: Cytotoxicity against human HCT116 cells at 10 uM after 48 hrs by SRB assay; format: functional; conditions: HCT-116, 48 h, read-out: GI
[25] = test system: NCI-H522; assay: Cytotoxicity against human NCI-H522 cells at 10 uM after 48 hrs by SRB assay; format: functional; conditions: NCI-H522, 48 h, read-out: GI
[26] = test system: U-251; assay: Cytotoxicity against human U251 cells at 10 uM after 48 hrs by SRB assay; format: functional; conditions: U-251, 48 h, read-out: GI
[27] = test system: A549; assay: Cytotoxicity against human A549 cells at 10 uM after 48 hrs by SRB assay; format: functional; conditions: A549, 48 h, read-out: GI
[28] = n-Octanol-phosphate buffer partition coefficient, log P of the compound at pH 7.4 by shake flask method; format: physicochemical
[29] = test system: M14; assay: Cytotoxicity against human M14 cells at 10 uM after 48 hrs by SRB assay; format: functional; conditions: M14, 48 h, read-out: GI
[30] = test system: OVCAR-5; assay: Cytotoxicity against human OVCAR5 cells at 10 uM after 48 hrs by SRB assay; format: functional; conditions: OVCAR-5, 48 h, read-out: GI
[31] = test system: SF-539; assay: Cytotoxicity against human SF539 cells at 10 uM after 48 hrs by SRB assay; format: functional; conditions: SF-539, 48 h, read-out: GI
[32] = test system: MDA-MB-231; assay: Cytotoxicity against human MDA-MB-231 cells at 10 uM after 48 hrs by SRB assay; format: functional; conditions: MDA-MB-231, 48 h, read-out: GI
[33] = test system: SF-268; assay: Cytotoxicity against human SF268 cells at 10 uM after 48 hrs by SRB assay; format: functional; conditions: SF-268, 48 h, read-out: GI
[34] = test system: ACHN; assay: Cytotoxicity against human ACHN cells at 10 uM after 48 hrs by SRB assay; format: functional; conditions: read-out: GI
[35] = test system: OVCAR-4; assay: Cytotoxicity against human OVCAR4 cells at 10 uM after 48 hrs by SRB assay; format: functional; conditions: OVCAR-4, 48 h, read-out: GI
[36] = test system: T47D; assay: Cytotoxicity against human T47D cells at 10 uM after 48 hrs by SRB assay; format: functional; conditions: read-out: GI
[37] = test system: K562; assay: Cytotoxicity against human K562 cells at 10 uM after 48 hrs by SRB assay; format: functional; conditions: K562, 48 h, read-out: GI
[38] = test system: IGROV-1; assay: Cytotoxicity against human IGROV1 cells at 10 uM after 48 hrs by SRB assay; format: functional; conditions: IGROV-1, 48 h, read-out: GI
[39] = test system: MOLT-4; assay: Cytotoxicity against human MOLT4 cells at 10 uM after 48 hrs by SRB assay; format: functional; conditions: MOLT-4, 48 h, read-out: GI
[40] = test system: DU-145; assay: Cytotoxicity against human DU145 cells at 10 uM after 48 hrs by SRB assay; format: functional; conditions: DU-145, 48 h, read-out: GI
[41] = test system: SK-OV-3; assay: Cytotoxicity against human SKOV3 cells at 10 uM after 48 hrs by SRB assay; format: functional; conditions: SK-OV-3, 48 h, read-out: GI
[42] = test system: KM12; assay: Cytotoxicity against human KM12 cells at 10 uM after 48 hrs by SRB assay; format: functional; conditions: KM12, 48 h, read-out: GI

What does the source list for `C=CCn1c(C)nc2ccc(Nc3nc(N4CCCC4)nc4ccccc34)cc21`?
inhibition of growth at 10 µM [1]: < 10%; inhibition of growth at 10 µM [2]: 94.3%; inhibition of growth at 10 µM [3]: < 10%; inhibition of growth at 10 µM [4]: < 10%; inhibition of growth at 10 µM [5]: < 10%; inhibition of growth at 10 µM [6]: 94.2%; inhibition of growth at 10 µM [7]: < 10%; inhibition of growth at 10 µM [8]: 20.6%; inhibition of growth at 10 µM [9]: 11.5%; inhibition of growth at 10 µM [10]: < 10%; inhibition of growth at 10 µM [11]: 47.6%; inhibition of growth at 10 µM [12]: 11.3%; inhibition of growth at 10 µM [13]: 45%; inhibition of growth at 10 µM [14]: 18.7%; inhibition of growth at 10 µM [15]: < 10%; inhibition of growth at 10 µM [16]: 31.9%; inhibition of growth at 10 µM [17]: 18.6%; inhibition of growth at 10 µM [18]: < 10%; inhibition of growth at 10 µM [19]: 97.5%; inhibition of growth at 10 µM [20]: 24%; inhibition of growth at 10 µM [21]: < 10%; inhibition of growth at 10 µM [22]: < 10%; inhibition of growth at 10 µM [23]: 15.9%; inhibition of growth at 10 µM [24]: 80.3%; inhibition of growth at 10 µM [25]: < 10%; inhibition of growth at 10 µM [26]: < 10%; inhibition of growth at 10 µM [27]: 25.4%; logD [28]: 2.9; inhibition of growth at 10 µM [29]: 10.3%; inhibition of growth at 10 µM [30]: < 10%; inhibition of growth at 10 µM [31]: < 10%; inhibition of growth at 10 µM [32]: 58%; inhibition of growth at 10 µM [33]: 13.1%; inhibition of growth at 10 µM [34]: < 10%; inhibition of growth at 10 µM [35]: < 10%; inhibition of growth at 10 µM [36]: < 10%; inhibition of growth at 10 µM [37]: 98%; inhibition of growth at 10 µM [38]: < 10%; inhibition of growth at 10 µM [39]: 50%; inhibition of growth at 10 µM [40]: 26.2%; inhibition of growth at 10 µM [41]: < 10%; inhibition of growth at 10 µM [42]: 29.9%
